Earlier results, collected in the CATMoS acute toxicity set (Mansouri et al. 2021).
Several values for one entry are separate records, joined by “and”; a condition that tells them apart may be missing. Identical values can stand only once.

experiment: rat acute oral toxicity; settings: in vivo

Row | Compound | LD50
1 | ClCc1cccc2ccccc12 | 890 mg/kg
2 | CCOP(=O)(OCC)SC(C)(C)C | 127 mg/kg
3 | CNC(=O)Oc1c(C(C)C)ccc(C)c1Cl | 250 mg/kg
4 | CC(C)(COC(N)=O)COC(N)=O | 2510 mg/kg
5 | CCOC(=S)SSC(=S)OCC | 480 mg/kg
6 | COc1cc2ccc(=O)oc2cc1OC | 292 mg/kg
7 | Nc1nc(N)c2cc(N(Cc3ccc(Cl)c(Cl)c3)N=O)ccc2n1 | 317 mg/kg
8 | CCC(C)CO (centres undefined) | 4170 mg/kg
9 | CC1(C)[C@@H](OC(=O)CCC(=O)O)CC[C@]2(C)[C@H]3C(=O)C=C4[C@@H]5C[C@@](C)(C(=O)O)CC[C@]5(C)CC[C@@]4(C)[C@]3(C)CC[C@@H]12 | 2450 mg/kg
10 | FCCBr | 5 mg/kg
11 | CC(c1ccc(C(F)(F)F)nc1)S(C)(=O)=NC#N (centres undefined) | 1000 mg/kg
12 | Cc1ccc(C)c(O)c1 | 444 mg/kg
13 | CC(C)(C)NCC(O)CSc1nc(-c2ccc(C(N)=O)s2)cs1 (centres undefined) | 86 mg/kg
14 | CC(C)(C(=O)c1cccnc1)c1cccnc1 | 521 mg/kg
15 | C=CC(=O)OCCC#N | 180 mg/kg
16 | CC(OC(C)c1ccccc1)c1ccccc1 (centres undefined) | 9800 mg/kg
17 | CCCCOCCOCCCC | 3250 mg/kg
18 | ClCc1ccccn1 | 316 mg/kg
19 | CC(=NNCCC1CCCCC1)C(=O)O | 520 mg/kg
20 | CCOP(=O)(OCC)SCC1(C)SCCS1 | 28 mg/kg
21 | Clc1ccc(C(Cl)(Cl)c2ccc(Cl)cc2)cc1 | 168 mg/kg
22 | CC(=O)CNC(C)(C)Cc1ccccc1 | 225 mg/kg
23 | CC1NC(=O)c2cc(N)ccc2O1 (centres undefined) | 1420 mg/kg
24 | CNS(=O)(=O)CCNC(=O)N(CCCl)N=O | 40 mg/kg
25 | CC(=O)OCCO | 8250 mg/kg

Row | Compound | LD50
26 | CCOP(=S)(OCC)Oc1cc(C)nc(N(C)C)n1 | 125 mg/kg
27 | CC(=O)C=Cc1ccco1 | 325 mg/kg
28 | CC(O)CN(C)c1ccc(NN)nn1 (centres undefined) | 1230 mg/kg
29 | CC[C@H]1OC(=O)[C@H](C)[C@@H](O[C@H]2C[C@@](C)(OC)[C@@H](O)[C@H](C)O2)[C@H](C)[C@@H](O[C@@H]2O[C@H](C)C[C@H](N(C)C)[C@H]2O)[C@](C)(OC)C[C@@H](C)C(=O)[C@H](C)[C@@H](O)[C@]1(C)O | 1270 mg/kg
30 | O=C1c2c(O)ccc(O)c2C(=O)c2c(NCCNCCO)ccc(NCCNCCO)c21 | 682 mg/kg
31 | O=NN(CCCl)C(=O)NC1CCCCC1 | 70 mg/kg
32 | COP(=S)(OC)SCSCC=C(Cl)Cl | 85 mg/kg
33 | CC1CS1 (centres undefined) | 254 mg/kg
34 | OCCN(CCO)c1ccccc1 | 980 mg/kg
35 | CN(C)C(=O)c1cccc(-c2ccccc2)c1O | 1900 mg/kg
36 | CN(C)C(=O)Nc1cccc(OC(=O)NC(C)(C)C)c1 | 3000 mg/kg
37 | NC(=S)Nc1ccccc1Cl | 4.6 mg/kg
38 | CC(=O)CCc1ccc(O)cc1 | 1320 mg/kg
39 | CCCCC(CC)COC(CBr)c1ccc(Cl)c(Cl)c1 (centres undefined) | 250 mg/kg
40 | COc1cccc(C(=O)NC2CC3CCC(C2)N3Cc2ccccc2)c1OC (centres undefined) | 147 mg/kg
41 | O=S(=O)(O)C(F)(F)C(F)(F)C(F)(F)C(F)(F)F | 430 mg/kg
42 | CC(C)=C[C@@H]1[C@@H](C(=O)OCc2coc(Cc3ccccc3)c2)C1(C)C | 1240 mg/kg
43 | O=C(NC(O)C(Cl)(Cl)Cl)NC(O)C(Cl)(Cl)Cl (centres undefined) | 6400 mg/kg
44 | Cc1ccn(C(N)=O)n1 | 830 mg/kg and 1100 mg/kg
45 | CNC(=O)Oc1ccccc1C1OCC(C)O1 (centres undefined) | 110 mg/kg
46 | Cc1c(Cl)cccc1Nc1ncccc1C(=O)O | 335 mg/kg
47 | O=C1CSC(=S)N1 | 320 mg/kg
48 | COc1c(Cl)cc2[nH]c(C(F)(F)F)nc2c1Cl | 8.03 mg/kg
49 | CN1C(=O)CN2CCc3ccccc3C2c2cc(Cl)ccc21 (centres undefined) | 1730 mg/kg
50 | O=NN1CCCCC1 | 200 mg/kg

Row | Compound | LD50
51 | CCCCCCCCCCF | 5 mg/kg
52 | CSN(C)C(=O)Oc1cccc2c1OC(C)(C)C2 | 5 mg/kg
53 | CC(=O)Oc1c([N+](=O)[O-])cc([N+](=O)[O-])cc1C(C)(C)C | 62 mg/kg
54 | Cc1cc(OCC(=O)N[C@@H]2C(=O)N3[C@@H]2SC(C)(C)[C@@H]3C(=O)O)ccc1Cl | 4000 mg/kg
55 | CCCCOC(=O)COc1ccc(Cl)cc1C | 914 mg/kg
56 | O=C(O)Cc1cc(I)c(Oc2cc(I)c(O)c(I)c2)c(I)c1 | 0.825 mg/kg
57 | Cc1ccc(/C(=C\CN2CCCC2)c2ccccn2)cc1 | 840 mg/kg
58 | O=C1CCc2cc(CCCN3CCN(c4ccccc4)CC3)ccc2N1 | 500 mg/kg
59 | O=C(O)c1ccccc1Nc1cccc(C(F)(F)F)c1 | 249 mg/kg
60 | CCCCCCCC(C)=O | 3200 mg/kg
61 | C=CC(=O)OCCCl | 180 mg/kg
62 | C[Si](C)(C)N=C=N[Si](C)(C)C | 1730 mg/kg
63 | CCSCCOP(=S)(OC)OC | 75 mg/kg
64 | CCCCC(C)(C)CO | 2200 mg/kg
65 | Oc1ccc(NCc2ccccc2)cc1 | 400 mg/kg
66 | C[C@@H]1CN(CCCn2c3ccccc3c3ccccc32)C[C@H](C)N1 | 907 mg/kg
67 | Clc1ccc(C(Cn2ccnc2)OCc2c(Cl)cccc2Cl)c(Cl)c1 (centres undefined) | 5600 mg/kg
68 | Cc1ccc2c(c1)C1CN(CCCC(=O)c3ccc(F)cc3)CCC1N2 (centres undefined) | 812 mg/kg
69 | O=c1[nH]c(=O)n([C@H]2C[C@H](O)[C@@H](CO)O2)cc1Br | 8400 mg/kg
70 | CCOC(=O)[C@H](CCc1ccccc1)N[C@@H](C)C(=O)N1Cc2ccccc2C[C@H]1C(=O)O | 3540 mg/kg
71 | CNS(=O)(=O)c1cc(Cl)c(Cl)cc1Cl | 5100 mg/kg
72 | O=C(Cl)CCl | 208 mg/kg
73 | CC(=O)N(/C(=N/c1cccnc1)NC#N)C(C)(C)C | 615 mg/kg
74 | O=C(NP(=O)(N1CC1)N1CC1)c1cc(I)ccc1I | 500 mg/kg
